From ChEMBL document CHEMBL3132764, “-Aminophosphonates as novel anti-leishmanial chemotypes: synthesis, biological evaluation, and CoMFA studies” (Medchemcomm, 2014)

Tests used:
[1] = Selectivity index, ratio of CC50 for mouse J774A1 cells to IC50 for promastigote stage of wild type Leishmania donovani MHOM/80/IN/Dd8; assay type: functional, J774.A1
[2] = Cytotoxicity against mouse J774A1 cells after 48 hrs by MTT assay; assay type: cell-based, J774.A1
Leishmania donovani = assay: Antileishmanial activity against promastigote stage of wild type Leishmania donovani MHOM/80/IN/Dd8 after 48 hrs by MTT assay; assay type: functional, organism-based; settings: MHOM/80/IN/Dd8, 48 h
[3] = Half life in human; assay type: ADME, organism-based; settings: in vivo

| half-life [3] [h] | Compound | Ratio CC50/IC50 [1] | CC50 at 48 h [2] [µM] | IC50 (Leishmania donovani; read-out: IC50) [µM] | IC50 (Leishmania donovani; read-out: pIC50 (converted)) [µM] |
| --- | --- | --- | --- | --- | --- |
| – | COP(=O)(OC)C1(Nc2ccccc2)CCCCC1 | 0.46 | 7.5 | 16.4 | 16.2 |
| – | COP(=O)(OC)C(Nc1ccccc1)c1ccccc1 (racemic) | 0.93 | 12.5 | 13.5 | 13.5 |
| – | COP(=O)(OC)C(Nc1ccccc1)C1CCCCC1 (racemic) | – | 14 | > 100 | – |
| – | COP(=O)(OC)C(Nc1ccccc1)c1ccc(N(C)C)cc1 (racemic) | – | 5 | > 100 | – |
| – | COP(=O)(OC)C(Nc1ccccc1)c1cccc(O)c1 (racemic) | – | > 100 | > 100 | – |
| – | COc1ccc(C(Nc2cc(C)on2)P(=O)(OC)OC)cc1 (racemic) | 0.94 | 7.5 | 8 | 7.94 |
| – | COc1ccc(C(Nc2nc3c(C)cccc3s2)P(=O)(OC)OC)cc1 (racemic) | 0.97 | 8.5 | 8.75 | 8.71 |
| – | COP(=O)(OC)C(Nc1ccccc1)c1ccc([N+](=O)[O-])cc1 (racemic) | 0.56 | 5 | 8.95 | 8.91 |
| – | COP(=O)(OC)C(Nc1ccccc1)c1ccccc1O (racemic) | 0.56 | 5 | 8.95 | 8.91 |
| – | COc1ccc(C(Nc2ccccc2)P(=O)(OC)OC)cc1O (racemic) | 3.18 | 31 | 9.75 | 9.77 |
| – | COP(=O)(OC)C(C)(Nc1ccccc1)c1ccccc1 (racemic) | 0.44 | 6 | 13.5 | 13.5 |
| – | COc1cc(C(Nc2ccccc2)P(=O)(OC)OC)cc(OC)c1O (racemic) | 0.74 | 10 | 13.5 | 13.5 |
| – | COP(=O)(OC)C(/C=C/c1ccccc1)Nc1ccccc1 (racemic) | 0.46 | 8 | 17.5 | 17.4 |
| – | COc1ccccc1C(Nc1ccccc1)P(=O)(OC)OC (racemic) | 0.33 | 6 | 18 | 18.2 |
| – | COc1ccc(C(Nc2nc3c(Cl)cccc3s2)P(=O)(OC)OC)cc1 (racemic) | – | – | 22 | 21.9 |
| – | COP(=O)(OC)C(Nc1ccccc1)c1ccccc1Br (racemic) | 0.24 | 5.5 | 22.5 | 22.4 |
| – | COP(=O)(OC)C(Nc1ccccc1)c1ccccc1F (racemic) | 0.5 | 12 | 24 | 24 |
| – | COc1ccc(C(Nc2ccccc2)P(=O)(OC)OC)cc1 (racemic) | 0.22 | 5.5 | 25 | 25.1 |
| – | COP(=O)(OC)C(Nc1cc(C)on1)c1ccccc1 (racemic) | – | – | 30 | 30.2 |
| – | COP(=O)(OC)C(Nc1ccccc1)c1ccc(Cl)cc1 (racemic) | 1.08 | 39 | 36 | 36.3 |
| – | COP(=O)(OC)C(Nc1ccccc1)c1ccc(Br)cc1 (racemic) | 0.17 | 6.5 | 39 | 38.9 |
| – | COP(=O)(OC)C(Nc1ccccc1)c1cccc2ccccc12 (racemic) | – | > 100 | 56 | 56.2 |
| – | COP(=O)(OC)C(Nc1ccccc1)c1ccccn1 (racemic) | 0.06 | 5 | 90 | 89.1 |
| – | COP(=O)(OC)C(Nc1ccccc1)c1ccc2ccccc2c1 (racemic) | 0.07 | 6.1 | 91.5 | 91.2 |
| – | COc1cc(C(Nc2ccccc2)P(=O)(OC)OC)ccc1O (racemic) | 0.7 | 5 | 7.1 | 7.08 |
| – | COP(=O)(OC)C(Nc1ccccc1)c1ccc(O)cc1 (racemic) | 0.81 | 6.5 | 8 | 7.94 |
| – | C[C@@H]1[C@H](O)[C@@H](C)/C=C/C=C/C=C/C=C/C=C/C=C/C=C/[C@H](O[C@@H]2O[C@H](C)[C@@H](O)[C@H](N)[C@@H]2O)C[C@@H]2O[C@](O)(C[C@@H](O)C[C@@H](O)[C@H](O)CC[C@@H](O)C[C@@H](O)CC(=O)O[C@H]1C)C[C@H](O)[C@H]2C(=O)O [AMPHOTERICIN B] | 17.28 | 7 | 0.405 | – |
| 144 | CCCCCCCCCCCCCCCCOP(=O)([O-])OCC[N+](C)(C)C [MILTEFOSINE] | – | – | – | – |
